Measurements taken from patent publication US20230089899A1, “METHOD FOR NON-TARGETED CHARACTERISATION OF A SOLUTION COMPRISING A PLURALITY OF SOLUTES” (COMMISSARIAT A L'ENERGIE ATOMIQUE ET AUX ENERGIES …, priority 2021, published 2023).

What was measured:
physchem = test: physchem
Text: The total quantity of moles of the solutes in the mixture (i.e. n0) is approximately 5×10^−4 moles. The pH of the mixture is approximately 7.4 (phosphate buffer: PBS).
A sequence of 3 rows of partitions—as illustrated in FIG. 2—is applied to the mixture by using hydrated n-octanol for the partition of the aqueous mixture and that of the aqueous phases issued from the partitions of rows 1 and 2 (i.e. the phases φ11, φ21 and φ23), and an aqueous solution comprising PBS buffer having a pH of 7 in distilled water for the partition of the organic phases issued from the partitions of rows 1 and 2 (i.e. the phases φ12, φ22 and φ24).
The concentration of each solute in the phases issued from the partitions of rows 1, 2 and 3 (i.e. the phases φ11 to φ38) is monitored by UV-visible spectroscopy but only with the goal of verifying the proper running of the experiment.

[1] = theoretical log D; cited from earlier work
[2] = pH 7.4, experimental log D, log D of the solutes as verified experimentally, hydrated n-octanol/PBS buffer, UV-visible spectroscopy
[3] = pH 7.4, log D, in the experimental conditions used for this validation, n-octanol/aqueous phase, pH approximately 7.4 (PBS)

c1ccc2[nH]cnc2c1 [Benzimidazole, benzimidazole]
logD (physchem; [2]): 1.33
logD (physchem; [3]): 1.34

Cn1c(=O)c2[nH]cnc2n(C)c1=O [Theophylline, theophylline]
logD (physchem; [2]): 0.01
logD (physchem; [3]): -0.02

CC(C)=O [acetone]
log D^THEOR [1]: ~−0.24

CC(C)(c1ccc(O)cc1)c1ccc(O)cc1 [BPA, bisphenol A]
log D^THEOR [1]: 3.32
